The values that follow come from paper PMC6592895, “Unusual Flavones from Primula macrocalyx as Inhibitors of OAT1 and OAT3 and as Antifungal Agents against Candida rugosa” (Scientific Reports, 2019).

In general, IC50 refers to the concentration needed to halve the response being measured. In general, inhibition refers to the relative decrease from the control value, in per cent. Lower therefore signals a response near the control. Usually zone of inhibition stands for the size of the clear area around the sample on an inoculated plate.

Molecules are shown by their SMILES. ≈ marks a conversion by molar mass, not a printed value. Read-outs that look alike come from different tables or passages of the source. Bounds are passed on as bounds.

In data set [1] the test system is Candida rugosa (ATCC 10571). Put plainly: Broth microdilution antifungal assay. It counts as cell-based. The conditions noted are these: YM broth, 25 °C, read-out: MICs C. rugosa. The procedure:
Antifungal activity against C. rugosa (ATCC 10571) was measured as previously described using a broth microdilution method[36]–[38] with minor modifications. The assay was performed in sterile 96-well microtiter plates. Briefly, YM broth was prepared and autoclaved for 20 min at 121 °C, then allowed to cool to room temperature (25 °C). C. rugosa was dispersed in YM broth to an optical density of 1 UA at 600 nm (approximately 1 × 10^7 cfu/mL) using uninoculated broth as the blank. A 198 µL aliquot of the resulting fungal suspension was dispensed into each well of a 96-well plate. Stock solutions of the twelve compounds were prepared in DMSO at a concentration of 50 mM. The stock solutions were diluted to a range of final concentrations (500–0.14 µM) in YM broth such that the final DMSO concentration was no higher than 1%, v/v. A 2 µL aliquot of the resulting test samples was transferred to each well of the plate. Plates were incubated at 25 °C for 24 h prior to measurement of the optical density of each well at 600 nm. […] Amphotericin B was used as positive control.

For data set [2], the target named is T1, OAT3 (Homo sapiens, UniProt Q8TCC7).
T1 sequence (Q8TCC7 1-542): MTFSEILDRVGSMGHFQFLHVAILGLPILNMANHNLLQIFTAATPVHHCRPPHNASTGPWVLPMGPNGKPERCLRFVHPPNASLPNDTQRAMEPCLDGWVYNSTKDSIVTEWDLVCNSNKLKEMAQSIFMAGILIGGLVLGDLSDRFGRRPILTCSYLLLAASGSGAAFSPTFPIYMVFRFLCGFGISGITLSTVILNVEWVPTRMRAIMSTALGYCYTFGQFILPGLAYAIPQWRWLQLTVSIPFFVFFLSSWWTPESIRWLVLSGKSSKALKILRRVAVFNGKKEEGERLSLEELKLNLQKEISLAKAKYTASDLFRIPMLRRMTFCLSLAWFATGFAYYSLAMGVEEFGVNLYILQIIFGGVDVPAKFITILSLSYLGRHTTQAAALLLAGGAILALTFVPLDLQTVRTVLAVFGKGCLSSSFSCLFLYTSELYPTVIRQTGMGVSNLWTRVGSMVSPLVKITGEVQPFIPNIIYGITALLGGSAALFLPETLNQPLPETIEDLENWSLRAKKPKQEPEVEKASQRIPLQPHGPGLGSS
Put plainly: 6-CF uptake assay in HEK-OAT3 cells.
Experimental: (§1) The interactions of 12 flavones with the uptake of 6-CF in HEK-OAT1 and HEK-OAT3 cells were evaluated. This cell uptake assay was performed as previously described[14],[35]. A density of 5 × 10^4 cells were seeded per well in 96-well culture plates precoated with poly-D-lysine. […] Uptake was terminated by adding 100 µL ice-cold uptake buffer, and quickly washing the cells in each well three times with ice-cold phosphate-buffered saline (PBS). The cells were lysed with 100 µL of 20 mM Tris-HCl containing 0.2% TritonX-100. […] The protein content of the cell lysate was quantified using a BCA Protein Assay Kit. The intensity of fluorescence was standardized against total protein content, and measured in triplicate. The stock solutions of tested compounds were dissolved in DMSO with a final concentration of 50 mM and dilutions were made using uptake buffer.
(§2) For the uptake experiments, data were analyzed with a two-tailed unpaired Student’s t-test.

Data set [3] has as its target T2, OAT1 (Homo sapiens, UniProt Q4U2R8).
T2 sequence (Q4U2R8 1-563): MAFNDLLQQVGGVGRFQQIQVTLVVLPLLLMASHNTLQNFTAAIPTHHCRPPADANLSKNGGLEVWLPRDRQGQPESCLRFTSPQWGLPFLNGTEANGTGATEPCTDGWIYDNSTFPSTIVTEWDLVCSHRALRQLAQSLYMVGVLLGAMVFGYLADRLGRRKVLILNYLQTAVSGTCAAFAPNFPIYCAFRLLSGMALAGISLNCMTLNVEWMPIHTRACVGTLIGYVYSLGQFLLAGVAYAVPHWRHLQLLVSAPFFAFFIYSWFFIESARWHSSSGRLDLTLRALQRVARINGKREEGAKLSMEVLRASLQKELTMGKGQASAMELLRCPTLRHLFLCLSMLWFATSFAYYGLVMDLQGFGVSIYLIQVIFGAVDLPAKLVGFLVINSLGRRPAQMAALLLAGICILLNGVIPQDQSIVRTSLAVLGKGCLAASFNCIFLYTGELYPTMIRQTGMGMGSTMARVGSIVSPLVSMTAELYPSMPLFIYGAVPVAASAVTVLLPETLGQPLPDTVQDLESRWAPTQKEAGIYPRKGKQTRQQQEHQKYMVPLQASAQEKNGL
Put plainly: 6-CF uptake assay in HEK-OAT1 cells. The conditions noted are these: for inhibition at 5 min, 50 µM: human, HEK293 cells stably overexpressing OAT1 (HEK-OAT1), pH 7.2, probe 6-CF (4 µM).
Experimental: as §1, §2

Data set [4] deals with OAT1. To be noted: cited from earlier work.
Data set [5] concerns OAT1. To be noted: cited from earlier work. This is another data set of the same source.
For data set [6], the system named is OAT3. To be noted: read-out: IC50 OAT3; biflavonoids from Juniperus oblonga; cited from earlier work.
In data set [7] the test system is Oat3. To be noted: rat, in vivo, po; cited from earlier work.
The subject of a further data set is Candida rugosa. Put plainly: Agar well diffusion antimicrobial assay. It counts as cell-based. To be noted: Diutina rugosa, fraction at 1 mg/mL in DMSO, read-out: diameter zone of inhibition.
In data set [8] the test system is OAT3. Details: method as in PMID 30248705. The conditions noted are these: previous study; cited from earlier work.
Data set [9] has as its system OAT1. Further details: method as in PMID 30248705. To be noted: previous study; cited from earlier work.
The test system of data set [10] is OAT3. The conditions noted are these: cited from earlier work.
Data set [11] concerns OAT1. To be noted: read-out: IC50 OAT1; assay similar to that used in this study; cited from earlier work.
[12] abbreviates: Diutina rugosa, ATCC10571, 24 h.

With `COc1ccccc1-c1cc(=O)c2ccccc2o1` [Compound 3, 2′-methoxyflavone], the MIC in data set [1] (setting [12]) is > 500 µM. For the same compound, the IC50 against OAT3 [2] came out at 6.3 µM; against OAT1 [3], 2.9 µM.

As to `O=c1cc(-c2ccccc2)oc2ccccc12` [Compound 2, flavone], the MIC in data set [1] (setting [12]) was found to be 500 µM (≈ 111 µg/mL). Besides, the results for the IC50 at OAT3 [2] and against OAT1 [3] were 4.6 µM and 9.4 µM, respectively.

As to `O=c1c(O)c(-c2ccc(O)cc2O)oc2cc(O)cc(O)c12` [Morin], the IC50 in the data set on OAT1 [4] (read-out: IC50 OAT1, PAH uptake assay in LLC-PK1 cells) is < 0.3 µM.

Consider `O=c1cc(-c2ccc(O)cc2)oc2cc(O)cc(O)c12` [Apigenin], for which, in the data set with OAT1 [5], the IC50 was 0.737 µM.

Turning to `O=c1cc(-c2ccc(O)c(-c3c(O)cc(O)c4c(=O)cc(-c5ccc(O)cc5)oc34)c2)oc2cc(O)cc(O)c12` [amentoflavone], the IC50 with OAT3 [6] was 2 µM. Further, in the data set with Oat3 [7], the “effect on pharmacokinetic parameters of furosemide (substrate of Oat3)” value is on record as “markedly altered”.

Consider `COc1cc(-c2cc(=O)c3ccccc3o2)cc(O)c1OC` [Compound 6, 3′-hydroxy-4′,5′-dimethoxyflavone], for which the MIC in data set [1] (setting [12]) is > 500 µM. For the same compound, the half-maximal inhibitory concentration (IC50) worked out at 5.1 µM at OAT3 [2] and 3.2 µM against OAT1 [3].

Take `O=c1cc(-c2ccccc2O)oc2ccccc12` [Compound 10, 2′-hydroxyflavone]: the MIC in data set [1] (setting [12]) was > 500 µM. The compound also returned an IC50 against OAT3 [2] of 18.8 µM. Also, on OAT1 [3], the inhibition at 5 min, 50 µM is < 70%.

Turning to `C[C@@H]1[C@H](O)[C@@H](C)/C=C/C=C/C=C/C=C/C=C/C=C/C=C/[C@H](O[C@@H]2O[C@H](C)[C@@H](O)[C@H](N)[C@@H]2O)C[C@@H]2O[C@](O)(C[C@@H](O)C[C@@H](O)[C@H](O)CC[C@@H](O)C[C@@H](O)CC(=O)O[C@H]1C)C[C@H](O)[C@H]2C(=O)O` [Amphotericin B, reference compound], in [1] (setting [12]), the MIC turned out to be 0.4 µM (≈ 0.37 µg/mL). In addition, the zone of inhibition at 1000 µg/mL in the data set with Candida rugosa came to 11 mm.

Consider `COc1cccc(-c2cc(=O)c3ccccc3o2)c1` [Compound 1, 3′-methoxyflavone], for which, in [1] (setting [12]), the MIC is > 500 µM. Also, the inhibition at 5 min, 50 µM on OAT3 [2] (human, HEK293 cells stably overexpressing OAT3 (HEK-OAT3), pH 7.2, probe 6-CF (4 µM)) is < 70%; against OAT1 [3], < 70%.

Turning to `COc1c(O)cc2c(=O)c(-c3ccccc3O)coc2c1OC` [6,2′-dihydroxy-7,8-dimethoxyisoflavone], the 50% inhibitory concentration (IC50) with OAT3 [8] was 17.9 µM.

Turning to `COc1cccc(OC)c1-c1cc(=O)c2c(OC)c(OC)cc(OC)c2o1` [Compound 11, 5,6,8,2′,6′-pentamethoxyflavone], the MIC in data set [1] (setting [12]) was > 500 µM. The IC50 at OAT3 [2] turned out to be 10.9 µM. For the same compound, on OAT1 [3], the inhibition at 5 min, 50 µM is < 70%.

As for `COc1cc2c(=O)c(-c3ccccc3O)coc2c(OC)c1O` [7,2′-dihydroxy-6,8-dimethoxyisoflavone], the IC50 in the data set on OAT3 [8] was 5.6 µM.

As for `COc1ccc2c(=O)cc(-c3ccccc3)oc2c1` [7-methoxyflavone], the IC50 with OAT3 [8] is 5.8 µM; with OAT1 [9], 3.6 µM.

Turning to `COc1cc2c(=O)c(-c3ccccc3O)coc2c(OC)c1OC` [2′-hydroxy-6,7,8-trimethoxyisoflavone], the IC50 is 8.7 µM in the data set with OAT3 [8] and 9.1 µM in the data set on OAT1 [9].

In the case of `O=c1cc(-c2ccccc2)oc2cc(O)c(O)c(O)c12` [baicalein], the IC50 with OAT3 [10] was 2.4 µM.

For the compound `COc1ccc(O)cc1-c1cc(=O)c2ccccc2o1` [Compound 5, 2′-methoxy-5′-hydroxyflavone], the MIC in data set [1] (setting [12]) was > 500 µM. In addition, the IC50 at OAT3 [2] is 27.3 µM; on OAT1 [3], 26.9 µM.

As for `COc1c(O)cc(O)c2c(=O)cc(-c3ccccc3)oc12` [Wogonin], the IC50 in the data set with OAT3 [10] (read-out: IC50 OAT3, assay similar to that used in this study) is 1.3 µM; with OAT1 [11], 5.4 µM.

Consider `O=c1cc(-c2cccc(O)c2)oc2ccccc12` [Compound 9, 3′-hydroxyflavone], for which the MIC in data set [1] (setting [12]) was > 500 µM. Also, the IC50 at OAT3 [2] was 8 µM; at OAT1 [3], 11.4 µM.

For `COc1ccc(-c2cc(=O)c3c(O)cc(O)c(-c4cc(-c5cc(=O)c6c(O)cc(O)cc6o5)ccc4O)c3o2)cc1` [podocarpusflavone A], in the data set on OAT3 [6], the IC50 is 3.8 µM.

As for `O=c1cc(-c2ccc(O)cc2)oc2c(-c3c(O)cc(O)c4c(=O)cc(-c5ccc(O)cc5)oc34)c(O)cc(O)c12` [cupressuflavone], the IC50 in the data set on OAT3 [6] was > 50 µM.

On to `COc1ccc(OC)c(-c2cc(=O)c3ccccc3o2)c1` [Compound 4, 2′,5′-dimethoxyflavone], for which the MIC in [1] (setting [12]) is > 500 µM. The IC50 turned out to be 12.1 µM against OAT3 [2] and 32.9 µM against OAT1 [3].

With `O=c1cc(-c2ccc(O)c(O)c2)oc2cc(O)cc(O)c12` [luteolin], in the data set on OAT1 [4], the IC50 was 0.47 µM.

In the case of `COc1ccc(OC)c(-c2cc(=O)c3c(OC)c(OC)ccc3o2)c1OC` [Compound 8, 5,6,2′,3′,6′-pentamethoxyflavone], the MIC was < 2 µM in [1] (setting [12]) and 1.2 µM (≈ 0.447 µg/mL) in [1] (24 h). In addition, the IC50 was 7.4 µM against OAT3 [2] and 10 µM against OAT1 [3].

Take `COc1ccccc1-c1cc(=O)c2c(OC)c(OC)ccc2o1` [Compound 12, 5,6,2′-trimethoxyflavone]: the MIC in data set [1] (setting [12]) is < 2 µM; in [1] (24 h), 2.0 µM (≈ 0.625 µg/mL). In addition, the IC50 turned out to be 2.9 µM against OAT3 [2] and 9.6 µM against OAT1 [3].
